# Results taken from patent US9062041B2 (Bayer Intellectual Property GmbH, priority 2011, dated 2015).
# What was measured:
# Assay type in all cases: cell-based
# [1] = target: EP2 subtype of the human PGE2 receptor (Homo sapiens, UniProt P43116); test: cAMP antagonism test on the human EP2 receptor (HTRF cAMP detection); conditions: hEP2 receptor, read-out: Antagonism hEP2 IC50
# Source text: 1. Detection of Antagonism to the Human Prostaglandin E2 (Subtype EP2) Receptor Signal
# The binding of PGE2 to the EP2 subtype of the human PGE2 receptor induces the activation of membrane-located adenylate cyclases and leads to the formation of cAMP. In the presence of the phosphodiesterase inhibitor IBMX, the cAMP accumulated owing to this stimulation and released by cell lysis is used in a competitive detection method. In this test, the cAMP present in the lysate competes with a fluorescence-labelled cAMP (cAMP-d2) for binding to an Eu cryptate-labelled anti-cAMP antibody.
# (§1) In the absence of cellular cAMP, a maximal signal is produced, which is attributable to the binding of this cAMP-d2 molecule to the antibody. After excitation of the […] at 337 nm, there is a fluorescence resonance energy transfer (FRET) to the Eu cryptate molecules of the anti-cAMP antibody (labelled therewith), followed by a long-lasting emission signal at 665 nm (and at […]). Both signals are measured in a suitable measurement instrument with a time delay, i.e. after decay of the background fluorescence. Any increase in the low FRET signal caused by prostaglandin E2 administration (measured as well ratio change=emission665 nm/emission620 nm*10000) indicates the action of antagonists.
# 1.2.1. Test for Antagonism (Data Per Well of a 384-Well Plate):
# To a test plate with the substance solutions already added (0.05 μl; 100% DMSO, concentration range from 0.8 nM-16.5 μM) were added 4 μl of a cAMP-d2/cell suspension (625000 cells/ml). After a 20-minute preincubation at room temperature (RT), 2 μl of a 3×PGE2 solution (1.5 nM, in PBS-IBMX) were added and incubated in the presence of the agonist for a further 60 mins at RT (volume: ˜6 μl). Next the reaction was stopped by addition of 2 μl of lysis buffer and incubated for a further 20 mins at RT before the actual measurement (volume: ˜8 μl).
# [2] = target: EP4 subtype of the human PGE2 receptor (Homo sapiens, UniProt P35408); test: cAMP antagonism test on the human EP4 receptor (HTRF cAMP detection); conditions: selectivity towards hEP4, IC50 measured by cAMP antagonism test
# EP4 subtype of the human PGE2 receptor, sequence (P35408 whole entry): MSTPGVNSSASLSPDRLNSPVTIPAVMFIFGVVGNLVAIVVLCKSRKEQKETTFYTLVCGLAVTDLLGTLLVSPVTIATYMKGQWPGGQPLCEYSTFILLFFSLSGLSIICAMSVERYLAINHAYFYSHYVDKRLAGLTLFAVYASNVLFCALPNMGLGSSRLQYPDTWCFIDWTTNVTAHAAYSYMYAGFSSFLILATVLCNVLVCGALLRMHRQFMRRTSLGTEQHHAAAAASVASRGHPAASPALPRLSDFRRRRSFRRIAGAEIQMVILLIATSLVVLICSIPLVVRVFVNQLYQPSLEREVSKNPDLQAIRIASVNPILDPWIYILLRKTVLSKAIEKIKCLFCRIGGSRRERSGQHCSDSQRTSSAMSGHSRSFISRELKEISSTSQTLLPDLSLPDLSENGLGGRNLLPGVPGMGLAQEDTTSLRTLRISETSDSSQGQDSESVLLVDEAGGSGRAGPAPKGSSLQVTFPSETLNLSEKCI
# Source text: 2. Detection of Antagonism to the Human Prostaglandin E2 (Subtype EP4) Receptor Signal
# The binding of PGE2 to the EP4 subtype of the human PGE2 receptor induces the activation of membrane-located adenylate cyclases and leads to the formation of cAMP. In the presence of the phosphodiesterase inhibitor IBMX, the cAMP accumulated owing to this stimulation and released by cell lysis is used in a competitive detection method. In this test, the cAMP present in the lysate competes with a fluorescence-labelled cAMP (cAMP-d2) for binding to an Eu cryptate-labelled anti-cAMP antibody.
# as §1, with “cAMP” for “cAMP,”
# 2.2.1. Test for Antagonism (Data Per Well of a 384-Well Plate):
# To a test plate with the substance solutions already added (0.05 μl; 100% DMSO, concentration range from 0.8 nM-16.5 μM) were added 4 μl of a cAMP-d2/cell suspension (312500 cells/ml). After a 20-minute preincubation at room temperature (RT), 2 μl of a 3×PGE2 solution (0.3 nM, in PBS-IBMX) were added and incubated in the presence of the agonist for a further 60 mins at RT (volume: ˜6 μl). Next the reaction was stopped by addition of 2 μl of lysis buffer and incubated for a further 20 mins at RT before the actual measurement (volume: ˜8 μl).
# human PGD receptor = target: T1, human PGD receptor (Homo sapiens, UniProt Q13258); test: cAMP antagonism test on the human prostaglandin D receptor (HTRF cAMP detection); conditions: selectivity towards hDP, IC50 measured by cAMP antagonism test
# T1 sequence (Q13258 1-359): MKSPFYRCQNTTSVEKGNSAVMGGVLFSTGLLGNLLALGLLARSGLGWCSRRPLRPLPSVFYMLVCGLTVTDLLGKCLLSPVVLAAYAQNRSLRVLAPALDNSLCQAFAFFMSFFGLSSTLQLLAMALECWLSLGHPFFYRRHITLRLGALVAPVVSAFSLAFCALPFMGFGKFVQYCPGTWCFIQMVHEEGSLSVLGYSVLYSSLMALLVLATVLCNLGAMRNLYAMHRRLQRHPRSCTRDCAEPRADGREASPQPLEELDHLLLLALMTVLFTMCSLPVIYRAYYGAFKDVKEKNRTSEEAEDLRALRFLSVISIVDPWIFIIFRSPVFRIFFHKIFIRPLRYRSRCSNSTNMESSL
# Source text: 3. Detection of Antagonism to the Human Prostaglandin D Receptor Signal
# The binding of prostaglandin D2 to the human PGD receptor induces the activation of membrane-located adenylate cyclases and leads to the formation of cAMP. In the presence of the phosphodiesterase inhibitor IBMX, the cAMP accumulated owing to this stimulation and released by cell lysis is used in a competitive detection method. In this test, the cAMP present in the lysate competes with a fluorescence-labelled cAMP (cAMP-d2) for binding to an Eu cryptate-labelled anti-cAMP antibody.
# as §1
# 3.2.1. Test for Antagonism (Data Per Well of a 384-Well Plate):
# To a test plate with the substance solutions already added (0.05 μl; 100% DMSO, concentration range from 0.8 nM-16.5 μM) were added 4 μl of a cAMP-d2/cell suspension (625000 cells/ml). After a 20-minute preincubation at room temperature (RT), 2 μl of a 3×PGD2 solution (6 nM, in PBS-IBMX) were added and incubated in the presence of the agonist for a further 30 mins at RT (volume: ˜6 μl). Next the reaction was stopped by addition of 2 μl of lysis buffer and incubated for a further 20 mins at RT before the actual measurement (volume: ˜8 μl).
# EP2 subtype of the human PGE2 receptor, sequence (P43116 whole entry): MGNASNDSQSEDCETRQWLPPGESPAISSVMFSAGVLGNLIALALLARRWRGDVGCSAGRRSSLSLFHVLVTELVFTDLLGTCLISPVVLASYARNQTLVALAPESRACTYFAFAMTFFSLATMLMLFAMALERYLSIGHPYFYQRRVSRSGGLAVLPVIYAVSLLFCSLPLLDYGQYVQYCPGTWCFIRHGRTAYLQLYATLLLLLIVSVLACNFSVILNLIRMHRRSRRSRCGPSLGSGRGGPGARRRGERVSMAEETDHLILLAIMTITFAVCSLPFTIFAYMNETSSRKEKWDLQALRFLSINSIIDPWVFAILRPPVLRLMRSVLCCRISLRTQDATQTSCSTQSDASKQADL
IC50 [1],Selectivity hEP2/hEP4 [2],Selectivity hEP2/hDP (human PGD receptor),Structure (SMILES)
35.5 nM,xxx (xxx > 100),xxx (xxx > 100),"Cc1ccc(C(=O)N2CCC(Cn3cc4c(C)c(C(=O)NCCOCC5CC5)ccc4n3)CC2)cc1 [Example 85, N-[2-(cyclopropyl-methoxy)ethyl]-4-methyl-2-{[1-(4-methylbenzoyl)-piperidin-4-yl]-methyl}-2H-indazol-5-carboxamide]"
9.53 nM,xxx (xxx > 100),xxx (xxx > 100),"COCCNC(=O)c1ccc2nn(CC3CCN(C(=O)c4ccc(Oc5ccc(C#N)cc5)cc4)CC3)cc2c1C [Example 330, 2-({1-[4-(4-cyanophenoxy)benzoyl]piperidin-4-yl}methyl)-N-(2-methoxyethyl)-4-methyl-2H-indazol-5-carboxamide]"
8.01 nM,xxx (xxx > 100),xxx (xxx > 100),"COCCNC(=O)c1ccc2nn(CC3CCN(C(=O)c4ccc(Oc5ccc(F)cc5F)cc4)CC3)cc2c1C [Example 358, 2-({1-[4-(2,4-difluorophenoxy)benzoyl]piperidin-4-yl}methyl)-N-(2-methoxy-ethyl)-4-methyl-2H-indazol-5-carboxamide]"
485 nM,xx (xx: 10-100),xx (xx: 10-100),"COc1ccc(-c2ccc(C(=O)N3CCC(Cn4cc5c(C)c(C(=O)NCC(F)(F)F)ccc5n4)CC3)cc2)nc1 [Example 326, 2-({1-[4-(5-methoxypyridin-2-yl)benzoyl]piperidin-4-yl}methyl)-4-methyl-N-(2,2,2-trifluoroethyl)-2H-indazol-5-carboxamide]"
50 nM,xxx (xxx > 100),xxx (xxx > 100),"COCCNC(=O)c1ccc2nn(CC3CCN(C(=O)c4ccc(-c5ccncc5)c(C)c4)CC3)cc2c1C [Example 393, N-(2-methoxyethyl)-4-methyl-2-({1-[3-methyl-4-(4-pyridyl)benzoyl]piperidin-4-yl}methyl)-2H-indazol-5-carboxamide]"
77.7 nM,xxx (xxx > 100),xxx (xxx > 100),"Cc1c(C(=O)NCC2CC2)ccc2nn(CC3CCN(C(=O)c4ccc(Cl)cc4)CC3)cc12 [Example 402, 2-{[1-(4-chlorobenzoyl)piperidin-4-yl]methyl}-N-(cyclopropylmethyl)-4-methyl-2H-indazol-5-carboxamide]"

# Second part, the compound before the results:
Structure (SMILES),IC50 [1],Selectivity hEP2/hEP4 [2],Selectivity hEP2/hDP (human PGD receptor)
"COCCNC(=O)c1cc2cn(CC3CCN(C(=O)c4ccc(C(F)(F)F)cc4)CC3)nc2cc1C [Example 211, N-(2-methoxyethyl)-6-methyl-2-({1-[4-(trifluoromethyl)benzoyl]piperidin-4-yl}-methyl)-2H-indazol-5-carboxamide]",50.1 nM,xxx (xxx > 100),xxx (xxx > 100)
"Cc1c(C(=O)NCC2COCCO2)ccc2nn(CC3CCN(C(=O)c4ccc(Cl)cc4)CC3)cc12 (single isomer, unassigned) [Example 414, (R or S)-2-{[1-(4-chlorobenzoyl)piperidin-4-yl]methyl}-N-(1,4-dioxan-2-ylmethyl)-4-methyl-2H-indazol-5-carboxamide]",223 nM,xx (xx: 10-100),xx (xx: 10-100)
"Cc1c(C(=O)NCCN2CCC(F)(F)C2)ccc2nn(CC3CCN(C(=O)c4ccc(SC(F)(F)F)cc4)CC3)cc12 [Example 70, N-[2-(3,3-difluoropyrrolidin-1-yl)ethyl]-4-methyl-2-[(1-{4-[(trifluoromethyl)sulphanyl]benzoyl}piperidin-4-yl)methyl]-2H-indazol-5-carboxamide]",49 nM,,xxx (xxx > 100)
"COCCNC(=O)c1ccc2nn(CC3CN(C(=O)c4ccc(OC(F)(F)F)cc4)C3)cc2c1C [Example 119, N-(2-methoxyethyl)-4-methyl-2-({1-[4-(trifluoromethoxy)benzoyl]azetidin-3-yl}methyl)-2H-indazol-5-carboxamide]",13.2 nM,,xxx (xxx > 100)
"COCCNC(=O)c1ccc2nn(CC3CN(C(=O)c4ccc(Cl)c(C(F)(F)F)c4)C3)cc2c1OC [Example 256, 2-({1-[4-chloro-3-(trifluoromethyl)benzoyl]azetidin-3-yl}methyl)-4-methoxy-N-(2-methoxyethyl)-2H-indazol-5-carboxamide]",107 nM,xxx (xxx > 100),
"COCCNC(=O)c1ccc2nn(CC3CN(C(=O)c4ccc(C(F)(F)F)cc4F)C3)cc2c1C [Example 120, 2-({1-[2-fluoro-4-(trifluoromethyl)benzoyl]azetidin-3-yl}methyl)-N-(2-methoxy-ethyl)-4-methyl-2H-indazol-5-carboxamide]",15.5 nM,,xxx (xxx > 100)
"COCCNC(=O)c1ccc2nn(CC3CN(C(=O)c4ccc(SC(F)(F)F)cc4)C3)cc2c1C [Example 118, N-(2-methoxyethyl)-4-methyl-2-[(1-{4-[(trifluoromethyl)sulphanyl]benzoyl}azetidin-3-yl)methyl]-2H-indazol-5-carboxamide]",8.17 nM,,xxx (xxx > 100)
"Cc1c(C(=O)NCCN2CCC(F)(F)C2)ccc2nn(CC3CCN(C(=O)c4ccc(Cl)cc4)CC3)cc12 [Example 69, 2-{[1-(4-chlorobenzoyl)piperidin-4-yl]methyl}-N-[2-(3,3-difluoropyrrolidin-1-yl)ethyl]-4-methyl-2H-indazol-5-carboxamide]",29 nM,,xxx (xxx > 100)
